# Reference: ChEMBL document CHEMBL5500322, “The significance of persisters in tuberculosis drug discovery: Exploring the potential of targeting the glyoxylate shunt pathway” (Eur J Med Chem, 2024)
# Columns and labels:
# [1] = Inhibition of N-terminal His-tagged isocitrate lyase (unknown origin) expressed in Escherichia coli BL21 (DE3)
# [2] = system: Mycobacterium tuberculosis; assay: Antibacterial activity against Mycobacterium tuberculosis H37Rv (ATCC 27294) assessed as bacterial growth inhibition incubated for 7 days by microdilution alamarBlue assay; format: functional; conditions: 168 h, time 7 day
# [3] = Binding affinity to indigofera isocitrate lyase assessed as inhibition of constant; parameters: species or system Vogesella indigofera
# [4] = Inhibition of N-terminal His-tagged Mycobacterium tuberculosis malate synthase expressed in Escherichia coli BL21 (DE3)
# [5] = Inhibition of Mycobacterium tuberculosis isocitrate lyase
# [6] = system: Mycobacterium tuberculosis; assay: Inhibition of Mycobacterium tuberculosis isocitrate lyase at 0.05 microg/ml relative to control; conditions: dose 0.05 µg/ml
# [7] = system: Mycobacterium tuberculosis; assay: Inhibition of Mycobacterium tuberculosis malate synthase at 1 uM relative to control
# [8] = system: Mycobacterium tuberculosis; assay: Binding affinity to Mycobacterium tuberculosis isocitrate lyase assessed as inactivation constant
# [9] = system: Mycobacterium tuberculosis; assay: Antimycobacterial activity against Mycobacterium tuberculosis assessed as reduction in bacterial growth; format: functional
# [10] = system: Escherichia coli; assay: Antibacterial activity against Escherichia coli assessed as reduction in bacterial growth; format: functional, organism-based
# [11] = system: Mycobacterium tuberculosis; assay: Antimycobacterial activity against Mycobacterium tuberculosis H37Rv assessed as reduction in bacterial growth measured after 7 days by broth dilution method; format: functional; conditions: 168 h, time 7 day
# [12] = system: Mycobacterium tuberculosis; assay: Antimycobacterial activity against Mycobacterium tuberculosis H37Rv assessed as inhibition of bacterial growth incubated for 24 hrs by alamar blue assay; format: functional
# [13] = Binding affinity to Mycobacterium tuberculosis Malate synthase assessed as inhibition constant
compound,measurement,setting,value
COC(=O)/C=C/C(=O)c1ccc(OC)cc1,IC50,[1]; read-out: IC50,30.9 µM
same,MIC,[2],0.25 µg/mL
O=C(O)CC[N+](=O)[O-],Ki,[3],120 µM
O=C(O)/C(O)=C/C(=O)c1ccccc1,IC50,[4],2 µM
CCCCCCCCCCCCC(=O)NNC(=O)c1c(O)c2ccccc2n(CC)c1=O,IC50,[5],134.4 µg/mL
COc1ccc2cc(CCC(=O)CC(Nc3ccc(C(=O)O)cc3)c3ccc(Cl)cc3)ccc2c1 (centres undefined),inhibition,[6],57.4%
O=C(O)CC(O)C(=O)O (centres undefined),inhibition,[7],50%
O=C(O)[C@@H](C[N+](=O)[O-])[C@@H](O)C(=O)O,Kinact,[8],1.3 10^3/M.s
O=C(O)[C@H]1O[C@H]1C(=O)O,Kinact,[8],0.01 10^3/M.s
Nc1ccc(C(=O)O)c(O)c1 [AMINOSALICYLIC ACID],MIC,[9],≥ 125 µM
O=C(O)C(=O)CBr [BROMOPYRUVATE],IC50,[10],3 µM
COc1ccc2c(c[n+](C)c3c4cc5c(cc4ccc23)OCO5)c1OC [CHELERYTHRINE],MIC,[11],8 µg/mL
O=c1ccc2ccc(O)c(O)c2o1 [DAPHNETIN],MIC,[12],128 µg/mL
same,IC50,[1],4.34 µg/mL
O=CC(=O)O [GLYOXYLATE],Ki,[13],900 µM
C=C(CC(=O)O)C(=O)O [ITACONATE],Ki,[3],120 µM
O=C(O)C(=O)O [OXALIC ACID],Ki,[13],400 µM
C=C(OP(=O)(O)O)C(=O)O [PHOSPHOENOLPYRUVATE],Ki,[13],200 µM
Nc1ccc(S(=O)(=O)Nc2nccs2)cc1 [SULFATHIAZOLE],MIC,[9],≥ 125 µM
